The values that follow come from patent US11684593B2 (GENEHEAL BIOTECHNOLOGY CO., LTD., priority 2017, dated 2023).

The subject of assay [1] is lung cancer cell strain A549. In words: cells. The note with it: Homo sapiens, A549, 48 h.
Assay [2] relates to breast cancer cell strain MD231. In words: cells. The settings on record: 48 h.
Assay [3] deals with breast cancer cell strain MD468. In words: cells. The note with it: 48 h.
For assay [4], the system named is lung cancer cell strain H1299. In words: cells. The settings on record: Homo sapiens, NCI-H1299, 48 h.
The subject of assay [5] is oncogene myc. The settings on record: Western Blot, FIG. 4. (In general: In western blotting, separated proteins are transferred to a membrane and probed.)
For assay [6], the target named is PAICS (Homo sapiens, UniProt P22234).
Chain of PAICS (P22234 whole entry): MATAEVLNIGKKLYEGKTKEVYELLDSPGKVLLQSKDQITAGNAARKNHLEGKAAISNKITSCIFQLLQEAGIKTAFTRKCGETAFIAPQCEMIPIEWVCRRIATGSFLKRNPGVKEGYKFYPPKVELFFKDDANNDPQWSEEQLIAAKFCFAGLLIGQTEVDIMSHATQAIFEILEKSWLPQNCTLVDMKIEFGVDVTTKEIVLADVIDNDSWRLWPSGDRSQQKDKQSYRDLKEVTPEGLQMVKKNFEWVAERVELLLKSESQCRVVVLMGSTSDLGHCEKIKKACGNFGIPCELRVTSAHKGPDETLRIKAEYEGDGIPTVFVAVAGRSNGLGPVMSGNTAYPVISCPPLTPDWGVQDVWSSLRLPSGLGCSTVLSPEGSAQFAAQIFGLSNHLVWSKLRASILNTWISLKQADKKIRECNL

`NCCCNCCCCNCCCN` [spermine]: the IC50 in assay [1] turned out to be 117 µM; in assay [2] it was 3.55 µM; in assay [3], 38 µM; in assay [4], 25.2 µM. In addition, the “expression of oncogene myc” value in assay [5] is “significantly down-regulated”. Moreover, the “inhibition of the accumulation of SAICAR” value in assay [6] is on record as “up to 71.1%”.

For orientation: IC50 means the concentration needed to halve the response being measured. A high value points to weaker potency.
